According to the NIST ThermoML archive (doi:10.1021/je060486k):
Numbers after ± are expanded uncertainties.

Experiment: cn = amount concentration of the nth substance listed, in mol/dm3
Conditions: 298.15 K; for surface tension liquid-gas: Wilhelmy plate method; for kinematic viscosity / mass density / speed of sound: 101 kPa, Liquid; for kinematic viscosity: Capillary tube (Ostwald / Ubbelohde) method

CCCCCCCCCC[N+](C)(C)C.[Br-] [N,N,N-trimethyl-1-decanaminium bromide] + O
Conditions | kinematic viscosity [m2/s] | mass density [kg/m3] | speed of sound [m/s] | surface tension liquid-gas [mN/m]
c1 = 0.001 | 8.975e-07 ± 6.1e-09 | 997.11 ± 0.57 | 1497.3 ± 3 | 65.4 ± 0.8
c1 = 0.005 | 8.99e-07 ± 6.1e-09 | 997.25 ± 0.57 | 1497.8 ± 3 | 60.1 ± 0.8
c1 = 0.01 | 9.048e-07 ± 6.1e-09 | 997.37 ± 0.56 | 1498.7 ± 3 | 57.6 ± 0.8
c1 = 0.02 | 9.14e-07 ± 6.2e-09 | 997.58 ± 0.56 | 1500.8 ± 3 | 49.7 ± 0.8
c1 = 0.03 | 9.224e-07 ± 6.2e-09 | 997.85 ± 0.56 | 1502.6 ± 3 | 43.4 ± 0.8
c1 = 0.04 | 9.35e-07 ± 6.3e-09 | 998.06 ± 0.56 | 1504.3 ± 3 | 38 ± 0.8
c1 = 0.05 | 9.449e-07 ± 6.4e-09 | 998.33 ± 0.56 | 1506.3 ± 3 | 36.9 ± 0.8
c1 = 0.06 | 9.56e-07 ± 6.4e-09 | 998.52 ± 0.56 | 1508 ± 3 | 36.1 ± 0.8
c1 = 0.07 | 9.642e-07 ± 6.5e-09 | 998.79 ± 0.56 | 1509.2 ± 3 | 35.5 ± 0.8
c1 = 0.08 | 9.78e-07 ± 6.6e-09 | 999 ± 0.56 | 1509.7 ± 3 | 35.2 ± 0.8
c1 = 0.1 | 1.002e-06 ± 6.7e-09 | 999.37 ± 0.56 | 1510.1 ± 3 | 35.2 ± 0.8
c1 = 0.12 | 1.024e-06 ± 6.9e-09 | 999.77 ± 0.56 | 1510.6 ± 3.1 | 35 ± 0.8
c1 = 0.15 | 1.062e-06 ± 7.2e-09 | 1000.4 ± 0.56 | 1511.1 ± 3.1 | 35.2 ± 0.8
c1 = 0.2 | 1.117e-06 ± 7.5e-09 | 1001.22 ± 0.57 | 1511.7 ± 3.1 | 35 ± 0.8
c1 = 0.25 | 1.181e-06 ± 8e-09 | 1002.09 ± 0.58 | 1512.4 ± 3.1 | 35.1 ± 0.8

CCCCCC[N+](C)(C)C.[Br-] [hexyltrimethylammonium bromide] + O
Conditions | kinematic viscosity [m2/s] | mass density [kg/m3] | speed of sound [m/s] | surface tension liquid-gas [mN/m]
c1 = 0.1 | 9.149e-07 ± 6.2e-09 | 1000.32 ± 0.55 | 1510.6 ± 3 | 51.6 ± 0.8
c1 = 0.2 | 9.406e-07 ± 6.4e-09 | 1003.85 ± 0.58 | 1524.9 ± 3.1 | 44.3 ± 0.8
c1 = 0.3 | 9.727e-07 ± 6.6e-09 | 1006.97 ± 0.6 | 1537.3 ± 3.1 | 41.1 ± 0.8
c1 = 0.4 | 1.011e-06 ± 6.8e-09 | 1010.42 ± 0.62 | 1550.5 ± 3.1 | 38.3 ± 0.8
c1 = 0.45 | 1.033e-06 ± 7e-09 | 1012.06 ± 0.64 | 1557.7 ± 3.1 | 36.8 ± 0.8
c1 = 0.5 | 1.056e-06 ± 7.1e-09 | 1013.74 ± 0.65 | 1562.9 ± 3.1 | 35.8 ± 0.8
c1 = 0.6 | 1.108e-06 ± 7.5e-09 | 1017.19 ± 0.67 | 1575.3 ± 3.2 | 34 ± 0.8
c1 = 0.7 | 1.166e-06 ± 7.8e-09 | 1021.02 ± 0.7 | 1588.6 ± 3.2 | 32.5 ± 0.8
c1 = 0.8 | 1.23e-06 ± 8.3e-09 | 1024.21 ± 0.72 | 1599.1 ± 3.2 | 31.2 ± 0.8
c1 = 0.9 | 1.301e-06 ± 8.7e-09 | 1027.68 ± 0.75 | 1610 ± 3.2 | 30.5 ± 0.8
c1 = 1 | 1.379e-06 ± 9.2e-09 | 1031.33 ± 0.77 | 1620.6 ± 3.2 | 29.9 ± 0.8
c1 = 1.1 | 1.463e-06 ± 9.8e-09 | 1034.12 ± 0.79 | 1628.1 ± 3.2 | 29.5 ± 0.8
c1 = 1.3 | 1.65e-06 ± 1.1e-08 | 1041.07 ± 0.84 | 1644.8 ± 3.3 | 29.3 ± 0.8
c1 = 1.5 | 1.863e-06 ± 1.2e-08 | 1047.62 ± 0.89 | 1652.1 ± 3.3 | 29.1 ± 0.8
c1 = 1.7 | 2.101e-06 ± 1.4e-08 | 1054.38 ± 0.94 | 1660 ± 3.3 | 29.1 ± 0.8
c1 = 2 | 2.508e-06 ± 1.7e-08 | 1064.23 ± 1 | 1670.3 ± 3.3 | 28.9 ± 0.8

CCCCCCCC[N+](C)(C)C.[Br-] [octyl trimethyl ammonium bromide] + O
Conditions | kinematic viscosity [m2/s] | mass density [kg/m3] | speed of sound [m/s] | surface tension liquid-gas [mN/m]
c1 = 0.02 | 8.99e-07 ± 6.1e-09 | 997.62 ± 0.56 | 1500.1 ± 3 | 69.4 ± 0.8
c1 = 0.04 | 9.033e-07 ± 6.1e-09 | 998.2 ± 0.56 | 1503.1 ± 3 | 63.1 ± 0.8
c1 = 0.06 | 9.083e-07 ± 6.1e-09 | 998.73 ± 0.56 | 1506.3 ± 3 | 59.5 ± 0.8
c1 = 0.08 | 9.14e-07 ± 6.2e-09 | 999.23 ± 0.55 | 1510 ± 3 | 54.6 ± 0.8
c1 = 0.1 | 9.2e-07 ± 6.2e-09 | 999.68 ± 0.55 | 1513.1 ± 3 | 51.1 ± 0.8
c1 = 0.12 | 9.276e-07 ± 6.3e-09 | 1000.25 ± 0.55 | 1516.4 ± 3.1 | 48.9 ± 0.8
c1 = 0.14 | 9.355e-07 ± 6.3e-09 | 1000.79 ± 0.56 | 1520.3 ± 3.1 | 46.5 ± 0.8
c1 = 0.16 | 9.441e-07 ± 6.4e-09 | 1001.62 ± 0.56 | 1522.7 ± 3.1 | 44 ± 0.8
c1 = 0.18 | 9.534e-07 ± 6.4e-09 | 1001.9 ± 0.56 | 1525.8 ± 3.1 | 41.7 ± 0.8
c1 = 0.2 | 9.636e-07 ± 6.5e-09 | 1002.54 ± 0.57 | 1529.6 ± 3.1 | 39.8 ± 0.8
c1 = 0.3 | 1.025e-06 ± 6.9e-09 | 1005 ± 0.59 | 1540 ± 3.1 | 36.4 ± 0.8
c1 = 0.4 | 1.103e-06 ± 7.4e-09 | 1008.09 ± 0.61 | 1546.5 ± 3.1 | 35.8 ± 0.8
c1 = 0.5 | 1.2e-06 ± 8e-09 | 1010.5 ± 0.63 | 1549.2 ± 3.1 | 35.5 ± 0.8
c1 = 0.6 | 1.315e-06 ± 8.7e-09 | 1013.19 ± 0.65 | 1552.2 ± 3.1 | 35.4 ± 0.8
c1 = 0.8 | 1.598e-06 ± 1e-08 | 1018.07 ± 0.68 | 1557.4 ± 3.1 | 35.2 ± 0.8
c1 = 1 | 1.953e-06 ± 1.3e-08 | 1022.98 ± 0.72 | 1562.7 ± 3.1 | 35.1 ± 0.8

O [water] + CCCCCCCCCC[N+](C)(C)C.[Br-]
c2 = 0
Conditions | kinematic viscosity [m2/s] | surface tension liquid-gas [mN/m]
– | 8.956e-07 ± 6e-09 | 72.5 ± 0.8

O [water] + CCCCCCCC[N+](C)(C)C.[Br-]
c2 = 0
Conditions | kinematic viscosity [m2/s] | surface tension liquid-gas [mN/m]
– | 8.957e-07 ± 6e-09 | 72.5 ± 0.8

O [water] + CCCCCC[N+](C)(C)C.[Br-]
c2 = 0
Conditions | kinematic viscosity [m2/s] | surface tension liquid-gas [mN/m]
– | 8.957e-07 ± 6e-09 | 72.5 ± 0.8
